Patent US10668068B2, “Treating cancer with drug combinations” (The Research Foundation for The State University of New York, priority 2015, dated 2020)

How the values were obtained:
BT474 cells [1] = assay: Cell growth assay (live cell count), monolayer culture; type: cell-based, human; conditions: 0.01 μM, 3 days
From the text: (§1) For live cell counts, cell growth on 96-well plates were fixed 4% formaldehyde and counterstained with Hoechst 33342 for nuclei.

[2] = test system: EGFR, HER2, Her3 and ErbB4; assay: Western blotting of EGFR family activation and downstream Akt/Erk in BT474 cells; type: cell-based, human; conditions: 2 hours; for phosphorylation (activation) of EGFR family: ibrutinib 0.05 or 0.1 μM, AVL-292 0.1 μM
Method: (§2) Immunoblotting was performed essentially as described previously. Equal amounts of proteins were used. Antibodies used were anti-EGFR (1:1000,), anti-HER2 (1:1000,), anti-ERBB3, ERBB4 antibody, anti-BTK, anti-AKT, ERIK, anti-PLCγ1, PLCγ2 and anti-PARP (1:1000, cell signaling), anti-Flag antibody (1:1000, Sigma), anti-rabbit IgG-HRP and mouse IgG-HRP (1:5000, Jackson ImmunoResearch).

[3] = test system: BT474 human breast cancer cells; assay: Cell cycle analysis (propidium iodide, flow cytometry); type: cell-based
Method: After trypsinized, cells were collected and washed with cold PBS. Cells were fixed with 70% ethanol, washed and stained with PI/Triton X-100 staining solution (0.1% triton X-100, 2 μg/ml PI and 0.2 mg/ml DNAse-free RNAse) for 30 min. Samples were analyzed by flow cytometry.

BT474 cells [4] = assay: Nine days NRG1 co-treatment, crystal violet staining; type: cell-based, human; conditions: 9 days, drug 1 uM, NRG1 50 ng/ml
Method: (§3) Cells were cultured in 6-well plates for indicated days. Cells were fixed with 3.7% paraformaldehyde for 10 min and washed with PBS. After wash, cells were stained with 0.05% CV for 30 min Whole plate was washed with tape water. Dry plate was added with 0.5 ml methanol to solubilize the dye. Taking an aliquot to 96-well plate and reading CV stain with OD 540. Tumorospheres were counted under low magnification.

SKBR3 cells [5] = assay: as above; type: cell-based, human; conditions: 9 days, drug 1 uM, NRG1 50 ng/ml
Method: as §3

AKT = assay: Immunoblots of NRG1 effect on HER2, AKT and ERK activation in BT474 and SkBR3 cells; type: cell-based, human; conditions: 2 h
Method: as §2

xenografts of SKBR3 = test system: xenografts of SKBR3
Method: NOD/SCID mice were purchased from Jackson Lab (The Jackson Laboratory, Bar Harbor, Me., USA). All mouse procedures were approved by the Animal Care and Use Committees of SUNY Albany and performed in accordance with institutional policies.
For xenograft tumor studies, 1×10^6 SKBR3 cells were suspended in 50 μl Matrigel (BD Biosciences) diluted 1:2 with DMEM and injected into mammary fat pad. Treatment began when tumors were palpable. […] The tumor volume in mm^3 is calculated by the formula: volume=(width)^2×length/2 every 7 days.

[6] = test system: HER2-positive breast cancer cells; assay: Apoptosis assay (Alexa Fluor 488 annexin V)
[7] = test system: HER2-positive breast cancer cells; assay: Live cell count with NRG1 or EGF (growth factor driven rescue)
breast cancer cells = conditions: cited from earlier work
SKBR3 cells [8] = assay: Cell growth assay (live cell count); type: cell-based, human; conditions: 1 μM, 3 days
From the text: as §1

[9] = test system: HER2-positive breast cancer cells; assay: Cell growth assay (live cell count); type: cell-based; conditions: Homo sapiens, 72 h; 3 days of culture; read-out: IC50 for effect on HER2-positive breast cancer cells
From the text: as §1

BTK-C = target: T1, BTK-C (Homo sapiens, UniProt Q06187); assay: Inhibition of BTK-C kinase activity / activating phosphorylation (FIG. 8A-C); type: cell-based
T1 construct: Flag; expressed in transfected cells; host or cells: SKBR3-BTK-C (SKBR3 human breast cancer cells expressing BTK-C)
T1 sequence (Q06187 1-693 isoform Q06187-2): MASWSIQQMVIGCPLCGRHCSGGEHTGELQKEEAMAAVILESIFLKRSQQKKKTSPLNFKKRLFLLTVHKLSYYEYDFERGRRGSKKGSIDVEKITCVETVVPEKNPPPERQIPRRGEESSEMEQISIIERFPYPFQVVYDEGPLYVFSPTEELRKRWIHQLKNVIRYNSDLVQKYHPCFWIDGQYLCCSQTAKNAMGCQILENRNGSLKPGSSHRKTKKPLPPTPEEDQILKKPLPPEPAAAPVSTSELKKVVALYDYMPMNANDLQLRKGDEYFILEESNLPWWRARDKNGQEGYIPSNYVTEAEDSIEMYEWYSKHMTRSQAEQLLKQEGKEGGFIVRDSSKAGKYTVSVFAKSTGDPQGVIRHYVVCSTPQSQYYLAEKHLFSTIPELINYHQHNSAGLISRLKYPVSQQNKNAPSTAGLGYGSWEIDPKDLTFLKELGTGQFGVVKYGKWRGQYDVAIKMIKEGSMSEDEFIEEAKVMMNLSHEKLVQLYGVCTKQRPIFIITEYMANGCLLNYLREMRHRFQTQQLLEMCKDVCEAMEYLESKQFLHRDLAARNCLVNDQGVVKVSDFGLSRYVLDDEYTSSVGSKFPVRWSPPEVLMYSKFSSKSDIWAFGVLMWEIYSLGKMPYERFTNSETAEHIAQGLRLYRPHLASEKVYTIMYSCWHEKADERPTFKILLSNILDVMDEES

CS(=O)(=O)CCNCc1ccc(-c2ccc3ncnc(Nc4ccc(OCc5cccc(F)c5)c(Cl)c4)c3c2)o1 [lapatinib]
reduction of cell numbers (BT474 cells [1]; monolayer): fails to reduce HER2-positive breast cancer cell numbers significantly | Akt and Erk phosphorylation / downstream signaling [2]: inhibits both AKT and ERK phosphorylation | G1-S arrest ([3]; 24 hours): appreciable G1-S arrest | drug resistance after NRG1 co-treatment (BT474 cells [4]): yields cells that exhibit lapatinib resistance | drug resistance after NRG1 co-treatment (SKBR3 cells [5]): yields cells that exhibit lapatinib resistance | re-activation of AKT by NRG1 (AKT; co-treatment with NRG1 50 ng/ml): NRG1 re-activates AKT without activation of HER2 | activation of HER2, AKT and ERK (AKT; drug alone): blocked | potency in SKBR3 tumor xenograft compared with ibrutinib 12 mg/kg/day (xenografts of SKBR3; lapatinib 75 mg/kg/day p.o.): less potent | number of apoptotic cells ([6]; 0.05 or 0.1 μM, 24 hours): increase in the number of apoptotic cells | rescue from growth inhibition by NRG1 ([7]; 50 ng/ml of NRG1, 3 days): NRG1 application is able to rescue | cell growth suppression ([7]; drug without growth factor, 3 days): potently suppresses cell growth

C/C(O)=C(\C#N)C(=O)Nc1cc(Br)ccc1Br [LFM-A13]
apoptosis levels (breast cancer cells): increase apoptosis levels

C=CC(=O)N1CCC[C@@H](n2nc(-c3ccc(Oc4ccccc4)cc3)c3c(N)ncnc32)C1 [ibrutinib]
reduction of cell numbers (SKBR3 cells [8]): more than 80% | cell population, % of control (BT474 cells [1]; BT474 monolayer): 30 % of control | IC50 [9]: 30 nM | decrease in the number of cells in the S phase ([3]; 0.03 μM, compared with controls): 50% | tumor volume smaller than vehicle control / inhibition of tumor growth (xenografts of SKBR3; 12 mg/kg/day p.o., day 28): 45% | apoptosis induction compared with lapatinib ([6]; HER2-positive breast cancer cells): 1.5 fold

Cc1c(NC(=O)c2ccc(C(C)(C)C)cc2)cccc1-c1cn(C)c(=O)c(Nc2ccc(C(=O)N3CCOCC3)cc2)n1 [CGI-1746]
phosphorylation (activation) of EGFR family [2]: but not AVL-292 and CGI-1746, efficiently blocks activation of EGFR, HER2, ErbB3, and ErbB4

C=CC(=O)Nc1cccc(Nc2nc(Nc3ccc(OCCOC)cc3)ncc2F)c1 [AVL-292, N-(3-((5-fluoro-2((4-(2-methoxyethoxy)phenyl)amino)pyrimidin-4-yl)amino)phenyl)acrylamide]
BTK-C activating phosphorylation (BTK-C; FIG. 8C): inhibit BTK-C activating phosphorylation | inhibition of BTK-C kinase activity (BTK-C; compared with ibrutinib): inhibit BTK-C kinase activity to the same degree as ibrutinib | phosphorylation (activation) of EGFR family [2]: does not block EGFR family signaling pathway activation
